Source: patent US12391698B2, “Substituted piperidines and piperazines and methods for the treatment of CNS disorders” (SUVEN LIFE SCIENCES LIMITED, priority 2022, dated 2025)
Where a name gives a salt, the structure may show the parent alone.

Columns and labels:
Male Wistar rats [1] = assay: Effect on sleep/wake profile (EEG/EMG telemetry); assay type: in vivo, rat; conditions: 10 mg/kg, p.o., dosed 15 min prior to lights-off
Excerpt: Male Wistar rats were anesthetized with isoflurane (Baxter India Private Limited: 4% in oxygen for induction; 2% for maintenance) and were fixed into the stereotaxic frame (Stoelting, Illinois, USA) to perform surgery. An incision was made to reveal bregma from which coordinates were taken. Telemetric transmitter (Model F40-EET; DSI, St. Paul, MN, USA) was implanted into intraperitoneal cavity of the rats and leads were tunneled subcutaneously to the skull. One pair of electrodes were implanted epidurally into the frontal cortex region using stainless steel screws (CMA Microdialysis, Stockholm, Sweden) at coordinates of AP +3.2 mm, ML ±3.0 mm (Paxinos and Watson 2004) for recording of EEG and electrodes were fixed to the skull with dental acrylic cement (Dentalon® plus). The second set of lead wires were implanted into the neck nuchal muscle to record electromyogram (EMG). After a surgical recovery of minimum 3 weeks, animals were acclimatized to the handling procedures and were given a mock dosing for 3 days before the first experimental day.
One hour prior to lights-off, transmitter was switched on using a magnet and animals were transferred on to the receiver along with the home cage. […]
The amount of time spent in wake was determined for every 30 min and comparison between treatments was done using Bonferroni's post test.

Male CD1 mice = assay: Resident-intruder task; assay type: in vivo, mouse; conditions: 3.0 mg/kg, p.o., 30 min prior to trial
Procedure: Male CD1 mice of weight 20-35 g (Resident) and 15-25 g (Intruder) were used. Resident mice were habituated individually with an ovariectomized female mouse in each cage and intruders were habituated socially for 1 week. β-estradiol at a dose of 0.2 mg/kg, s.c. was administered to female mice during habituation. On day 1 and day 2, intruder was exposed to resident mouse in resident's home cage for a period of 10 min and duration of attack was measured. During this exposure, female mouse were removed from the cage. On day 4 from initial exposure, animals were randomized based on their duration of attacking and administered respective treatments. Test compound and vehicle were administered 30 min prior to the trial. After post dose interval resident mice were exposed to same intruder for 10 min and duration of attack was recorded. Resident intruder task models aggressive behavior.

Male Wistar rats [2] = assay: DOI-induced head twitch response; assay type: in vivo, rat; conditions: 3.0 mg/kg, s.c., 30 min prior to DOI
Procedure: On day 1 male Wistar rats (220-250 g) were habituated in a circular cylinder for a period of 15 min. On day 2, the rats were brought to the experimental room 30 min prior to the experiment. All the animals were administered with respective formulations i.e. vehicle or test compound 30 min prior to DOI or vehicle administration. Immediately following DOI or vehicle administration, the animals were kept in the circular cylinder for a period of 10 min to score the head twitches. Compounds which act as 5-HT2A antagonists attenuate DOI-induced head twitches.

[3] = test system: Dopamine and norepinephrine levels in prefrontal cortex and striatum; assay: Modulation in dopamine and norepinephrine levels in prefrontal cortex and striatum (microdialysis); assay type: in vivo; conditions: male Wistar rats; for mean maximum increase in dopamine levels in prefrontal cortex / mean maximum increase in norepinephrine levels in prefrontal cortex: s.c. (so in the source), basal = 100%

O=C1C[C@@H]2CCCN2C(=O)N1CCCCN1CCN(c2nsc3ccccc23)CC1 [Example 2, 2-[4-(4-Benzo[d]isothiazol-3-yl-piperazin-1-yl)-butyl]-tetrahydro-pyrrolo[1,2-c]pyrimidine-1,3-dione oxalate]
change in percent time wake (Male Wistar rats [1]): no change | Inference, resident intruder task (duration of attack) (Male CD1 mice): Active | Inference, DOI-induced head twitch response (Male Wistar rats [2]): Active | mean maximum increase in dopamine levels in prefrontal cortex ([3]; 3 mg/kg): 326±24% | mean maximum increase in norepinephrine levels in prefrontal cortex ([3]; 3 mg/kg): 187±30% | mean maximum increase in dopamine levels in prefrontal cortex ([3]; 10 mg/kg): 458±91% | mean maximum increase in norepinephrine levels in prefrontal cortex ([3]; 10 mg/kg): 368±99% | change in dopamine levels in striatum [3]: no change
